Target: T1, Flt-3 (Homo sapiens, UniProt P36888)
T1 construct: amino acids 563-993 of the cytoplasmic kinase domain of human Flt-3; made in house; host or cells: Sf9 insect cells (baculovirus, vector pFbacG01)
T1 sequence (P36888 563-993): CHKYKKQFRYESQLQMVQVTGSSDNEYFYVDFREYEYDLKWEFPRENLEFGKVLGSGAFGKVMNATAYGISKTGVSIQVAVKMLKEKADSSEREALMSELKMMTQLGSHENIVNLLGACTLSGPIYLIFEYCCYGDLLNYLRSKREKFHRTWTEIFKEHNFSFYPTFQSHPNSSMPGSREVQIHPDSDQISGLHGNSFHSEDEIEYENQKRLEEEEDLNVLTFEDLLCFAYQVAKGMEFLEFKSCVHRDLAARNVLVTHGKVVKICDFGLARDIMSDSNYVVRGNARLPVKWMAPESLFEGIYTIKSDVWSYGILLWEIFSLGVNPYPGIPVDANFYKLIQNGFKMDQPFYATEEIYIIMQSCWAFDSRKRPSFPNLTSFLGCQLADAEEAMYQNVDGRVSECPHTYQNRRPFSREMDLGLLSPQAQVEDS
Assay: Flt-3 kinase inhibition (GST-Flt-3, 33P incorporation into poly(Glu,Tyr))
Type: biochemical
Outline: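 GST-fused human Flt-3 kinase domain (aa 563-993) from Sf9 cells assayed with 3 μg/mL poly(Glu,Tyr) 4:1, 8.0 μM ATP plus [γ-33P]ATP, Mn2+/Mg2+, pH 7.6, 20 min at ambient temperature. 33P incorporation counted on PVDF; IC50 by linear regression, duplicates at four concentrations (usually 0.01-10 μM).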

Going from `Nc1cc(Oc2ccc(NC(=O)Nc3cc(CN4CCC4)cc(C(F)(F)F)c3)cc2)ncn1` [Example 4, N-[4-(6-Amino-pyrimidin-4-yloxy)-phenyl]-N′-(3-azetidin-1-ylmethyl-5-trifluoromethyl-phenyl)-urea] to `CNc1cc(Oc2ccc(NC(=O)Nc3cc(CN4CCN(C(C)C)CC4)cc(C(F)(F)F)c3)cc2)ncn1` [Example 6, N-[4-(6-Methylamino-pyrimidin-4-yloxy)-phenyl]-N′-[3-(4-isopropylpiperazin-1-ylmethyl)-5-trifluoromethyl-phenyl]-urea], the IC50 rises from 153 nM to 400 nM (2.6-fold). The first is the more potent here.

Going from `CC(C)N1CCN(Cc2ccc(NC(=O)Nc3ccc(Oc4cc(N)ncn4)cc3)cc2C(F)(F)F)CC1` [Example 19, N-[4-(6-Amino-pyrimidin-4-yloxy)-phenyl]-N′-[4-(4-isopropylpiperazin-1-ylmethyl)-3-trifluoromethyl-phenyl]-urea] to `CN1CCN(Cc2ccc(NC(=O)Nc3ccc(Oc4ccnc(N)n4)cc3)cc2C(F)(F)F)CC1` [Example 52a, 1-[4-(2-amino-pyrimidin-4-yloxy)-phenyl]-3-[4-(4-methylpiperazin-1-ylmethyl)-3-trifluoromethyl-phenyl]-urea], the IC50 falls from 250 nM to 120 nM (2.1-fold). The second is the more potent here.

Compared with `CC(C)(C)N1CCN(Cc2ccc(NC(=O)Nc3ccc(Oc4ccnc(N)n4)cc3)cc2C(F)(F)F)CC1` [Example 50], `CCN1CCN(Cc2ccc(NC(=O)Nc3ccc(Oc4ccnc(N)n4)cc3)cc2C(F)(F)F)CC1` [Example 52c, 1-[4-(2-Amino-pyrimidin-4-yloxy)-phenyl]-3-[4-(4-ethyl-piperazin-1-ylmethyl)-3-trifluoromethyl-phenyl]-urea] is 4.1-fold lower in IC50: 120 nM for the first, 29 nM for the second. The second is the more potent here.

Compared with `Cc1ncn(Cc2ccc(NC(=O)Nc3ccc(Oc4ccnc(N)n4)cc3)cc2C(F)(F)F)c1C` [Example 51a.1, 1-[4-(2-Amino-pyrimidin-4-yloxy)-phenyl]-3-(4-(4,5-dimethyl-imidazol-1-ylmethyl)-3-trifluoromethyl-phenyl]-urea], `CNc1nccc(Oc2ccc(NC(=O)Nc3ccc(N4CCN(C)CC4)c(C(F)(F)F)c3)cc2)n1` [Example 53d, 1-[4-(2-Methylamino-pyrimidin-4-yloxy)-phenyl]-3-[4-(4-methyl-piperazin-1-yl)-3-trifluoromethyl-phenyl]-urea] is 2.2-fold higher in IC50: 85 nM for the first, 190 nM for the second.

Compound `CNc1nccc(Oc2ccc(NC(=O)Nc3cc(N4CCN(C)CC4)cc(C(F)(F)F)c3)cc2)n1` [Example 53b, 1-[4-(2-Methylamino-pyrimidin-4-yloxy)-phenyl]-3-[3-(4-methyl-piperazin-1-yl)-5-trifluoromethyl-phenyl]-urea] has an IC50 of 120 nM.

— patent US20080312192A1, “Diaryl Urea Derivatives in the Treatment of Protein Kinase Dependent Diseases” (priority 2003, published 2008)
